Reference: ChEMBL document CHEMBL1201862, “PubChem BioAssay data set” (2004)
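Interpolation was linear, between the two tested concentrations surrounding the appropriate level; five concentrations were tested over 48 hours in 96-well plates. GI50: concentration for 50% inhibition of growth.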 Activity calls are given as the source filed them. No stated cut-off is given here; in the data, active = GI50 up to about 1.1 µM and inactive = higher.

Tests used:
Assay in all cases: DTP human tumour cell line panel, 48 h
786-0 = test system: 786-0
A498 = test system: A498
DU-145 = test system: DU-145
EKVX = test system: EKVX
HOP-62 = test system: HOP-62
Hs-578T = test system: Hs-578T
IGROV-1 = test system: IGROV-1
KM12 = test system: KM12
LOX IMVI = test system: LOX IMVI
MDA-MB-435 = test system: MDA-MB-435
MDA-N = test system: MDA-N
MOLT-4 = test system: MOLT-4
NCI-H522 = test system: NCI-H522
OVCAR-8 = test system: OVCAR-8
RXF 393 = test system: RXF 393
SF-295 = test system: SF-295
SK-MEL-28 = test system: SK-MEL-28
T47D = test system: T47D
U-251 = test system: U-251
UACC-257 = test system: UACC-257

Structure (SMILES)	GI50 (786-0)	GI50 (A498)	GI50 (DU-145)	GI50 (EKVX)	GI50 (HOP-62)	GI50 (Hs-578T)	GI50 (IGROV-1)	GI50 (KM12)	GI50 (LOX IMVI)	GI50 (MDA-MB-435)	GI50 (MDA-N)	GI50 (MOLT-4)	GI50 (NCI-H522)	GI50 (OVCAR-8)	GI50 (RXF 393)	GI50 (SF-295)	GI50 (SK-MEL-28)	GI50 (T47D)	GI50 (U-251)	GI50 (UACC-257)
Oc1c(Cl)cc(CN(Cc2cc(Cl)c(O)c(Cl)c2)C2CCCCC2)cc1Cl	> 100 µM (inactive)	> 100 µM (inactive)	> 100 µM (inactive)	> 100 µM (inactive)	> 100 µM (inactive)	> 100 µM (inactive)	> 100 µM (inactive)	> 100 µM (inactive)	> 100 µM (inactive)	> 100 µM (inactive)	> 100 µM (inactive)	> 100 µM (inactive)	> 100 µM (inactive)	> 100 µM (inactive)	> 100 µM (inactive)	> 100 µM (inactive)	> 100 µM (inactive)	> 100 µM (inactive)	> 100 µM (inactive)	> 100 µM (inactive)
O=c1c2cc([N+](=O)[O-])ccc2n(Cc2ccccc2)n1Cc1ccccc1	21.7 µM (inactive)	15.9 µM (inactive)	17.3 µM (inactive)	17.2 µM (inactive)	> 31.6 µM (inactive)	16.3 µM (inactive)	20.8 µM (inactive)	10.5 µM (inactive)	9.2 µM (inactive)	10.8 µM (inactive)	12.2 µM (inactive)	11.8 µM (inactive)	12 µM (inactive)	11.9 µM (inactive)	24.9 µM (inactive)	15.1 µM (inactive)	18.5 µM (inactive)	10.9 µM (inactive)	15.1 µM (inactive)	10.8 µM (inactive)
C1CCN(CCC2CCCCN2)CC1 (stereo not given)	> 100 µM (inactive)	> 100 µM (inactive)	> 100 µM (inactive)	> 100 µM (inactive)	> 100 µM (inactive)	> 100 µM (inactive)	> 100 µM (inactive)	> 100 µM (inactive)	> 100 µM (inactive)	> 100 µM (inactive)	> 100 µM (inactive)	> 100 µM (inactive)	> 100 µM (inactive)	> 100 µM (inactive)	> 100 µM (inactive)	> 100 µM (inactive)	> 100 µM (inactive)	> 100 µM (inactive)	> 100 µM (inactive)	> 100 µM (inactive)
O=c1c2c3c(sc2nc2n1N=CN(c1ccc(F)cc1)C2)CCCC3	> 100 µM (inactive)	> 100 µM (inactive)	> 100 µM (inactive)	> 100 µM (inactive)	> 100 µM (inactive)	> 100 µM (inactive)	> 100 µM (inactive)	> 100 µM (inactive)	> 100 µM (inactive)	> 100 µM (inactive)	> 100 µM (inactive)	> 100 µM (inactive)	> 100 µM (inactive)	> 100 µM (inactive)	> 100 µM (inactive)	> 100 µM (inactive)	> 100 µM (inactive)	> 100 µM (inactive)	> 100 µM (inactive)	> 100 µM (inactive)
COc1ccc(-n2c3c(c4c(CN(C)C)c(O)ccc42)C(=O)c2ccccc2C3=O)cc1	1.89 µM (inactive)	1.21 µM (inactive)	12.9 µM (inactive)	7.76 µM (inactive)	2.02 µM (inactive)	30.5 µM (inactive)	3.99 µM (inactive)	3.2 µM (inactive)	2.49 µM (inactive)	6.93 µM (inactive)	4.62 µM (inactive)	3 µM (inactive)	12.3 µM (inactive)	3.26 µM (inactive)	4.63 µM (inactive)	14.7 µM (inactive)	3.38 µM (inactive)	2.67 µM (inactive)	2.94 µM (inactive)	18.8 µM (inactive)
CC1=CC(=O)c2cccc(O)c2C1=O	1.7 µM (inactive)	18.5 µM (inactive)	8.05 µM (inactive)	4.29 µM (inactive)	17.1 µM (inactive)	3.07 µM (inactive)	13.2 µM (inactive)	12.6 µM (inactive)	2.52 µM (inactive)	1.78 µM (inactive)	1.9 µM (inactive)	0.473 µM (active)	2.25 µM (inactive)	2.56 µM (inactive)	1.88 µM (inactive)	14.3 µM (inactive)	4.25 µM (inactive)	1.77 µM (inactive)	16.5 µM (inactive)	1.79 µM (inactive)
c1ccc2c(c1)Nc1ccccc1[P+]21c2ccccc2Nc2ccccc21	0.401 µM (active)	0.318 µM (active)	0.318 µM (active)	0.312 µM (active)	0.313 µM (active)	0.0723 µM (active)	0.27 µM (active)	0.0845 µM (active)	0.587 µM (active)	0.284 µM (active)	0.27 µM (active)	0.0525 µM (active)	0.179 µM (active)	0.368 µM (active)	0.303 µM (active)	1.3 µM (inactive)	0.244 µM (active)	0.11 µM (active)	0.23 µM (active)	0.214 µM (active)
C=C(c1ccccc1)[C@@]1(O)CC[C@@H]1N(CC#N)Cc1ccccc1	18.4 µM (inactive)	13.6 µM (inactive)	80.7 µM (inactive)	37.7 µM (inactive)	97.3 µM (inactive)	20.7 µM (inactive)	36.1 µM (inactive)	28.6 µM (inactive)	19.1 µM (inactive)	22.5 µM (inactive)	22.3 µM (inactive)	26.3 µM (inactive)	20.6 µM (inactive)	33.4 µM (inactive)	17.7 µM (inactive)	58.1 µM (inactive)	17.2 µM (inactive)	16.3 µM (inactive)	53.3 µM (inactive)	17.8 µM (inactive)
Cc1nc2sc(C(=O)c3ccc(Cl)cc3)c(N)c2c(-c2ccccc2Cl)c1C(=O)Nc1ccccc1	10 µM (inactive)	21.3 µM (inactive)	19.1 µM (inactive)	21.9 µM (inactive)	15.8 µM (inactive)	20.1 µM (inactive)	19 µM (inactive)	18.5 µM (inactive)	12.2 µM (inactive)	12.2 µM (inactive)	10.8 µM (inactive)	14 µM (inactive)	5.51 µM (inactive)	13.4 µM (inactive)	14.7 µM (inactive)	20.7 µM (inactive)	13.1 µM (inactive)	2.93 µM (inactive)	7.08 µM (inactive)	18.6 µM (inactive)
c1ccc2c(c1)c1c(c3ccccc32)CN2CCCC2C1 (stereo not given)	3.94 µM (inactive)	3.72 µM (inactive)	4.17 µM (inactive)	4.74 µM (inactive)	2.79 µM (inactive)	2.38 µM (inactive)	2.7 µM (inactive)	4.2 µM (inactive)	3.35 µM (inactive)	4.42 µM (inactive)	2.82 µM (inactive)	4.61 µM (inactive)	2.57 µM (inactive)	3.17 µM (inactive)	2.34 µM (inactive)	3.09 µM (inactive)	2.62 µM (inactive)	1.5 µM (inactive)	3.4 µM (inactive)	4.05 µM (inactive)
